Test results: the supplement of paper PMC10307832

How the values were obtained:
Test in all cases: relative viability (nuclei count vs DMSO), 5 days (fraction); higher = more cells survive
H3255 = system: H3255
How it was run: (§1)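 Lung cancer cell lines were seeded in 1536-well plates and dosed by pin tool the next day, with either a single drug or a fixed anchor-drug dose combined with five library-drug doses (not always all listed) spaced in √10 steps. Five days later, one step fixed the cells and stained their nuclei (final 0.05% Triton X-100, 1% formaldehyde, 1 ug/ml Hoechst), and nuclei were counted on 4× images. Relative viability is the nuclei count in treated wells divided by the count in vehicle wells, and each value is the median of duplicate plates.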

201T = system: 201T
How it was run: as §1

NCI-H2170 = system: NCI-H2170
How it was run: as §1

EPLC-272H = system: EPLC-272H
How it was run: as §1

NCI-H1437 = system: NCI-H1437
How it was run: as §1

NCI-H1975 = system: NCI-H1975
How it was run: as §1

NCI-H2085 = system: NCI-H2085
How it was run: as §1

SW 1573 = system: SW 1573
How it was run: as §1

COR-L 105 = system: COR-L 105
How it was run: as §1

LCLC-97TM1 = system: LCLC-97TM1
How it was run: as §1

NCI-H1666 = system: NCI-H1666
How it was run: as §1

PC-3 [JPC-3] = system: PC-3 [JPC-3]
How it was run: as §1

LOU-NH91 = system: LOU-NH91
How it was run: as §1

EKVX = system: EKVX
How it was run: as §1

NCI-H650 = system: NCI-H650
How it was run: as §1

NCI-H647 = system: NCI-H647
How it was run: as §1

HCC-827 = system: HCC-827
How it was run: as §1

NCI-H2342 = system: NCI-H2342
How it was run: as §1

LU99A = system: LU99A
How it was run: as §1

BEN = system: BEN
How it was run: as §1

NCI-H2087 = system: NCI-H2087
How it was run: as §1

HCC-44 = system: HCC-44
How it was run: as §1

COc1cc2nccc(Oc3ccc(NC(=O)Nc4cc(C)on4)c(Cl)c3)c2cc1OC [Tivozanib] + Cc1cc(Nc2cc(N3CCN(C)CC3)nc(Sc3ccc(NC(=O)C4CC4)cc3)n2)n[nH]1 [Tozasertib] (partner 0.1 µM)
relative viability (H3255; first compound 0.005 µM): 0.745 | relative viability (H3255; first compound 0.01581 µM): 0.564 | relative viability (H3255; first compound 0.05 µM): 0.626 | relative viability (H3255; first compound 0.1581 µM): 0.804 | relative viability (H3255; first compound 0.5 µM): 0.565 | relative viability (201T; first compound 0.005 µM): 0.974 | relative viability (201T; first compound 0.01581 µM): 0.959 | relative viability (201T; first compound 0.05 µM): 0.981 | relative viability (201T; first compound 0.1581 µM): 0.985 | relative viability (201T; first compound 0.5 µM): 0.996 | relative viability (NCI-H2170; first compound 0.005 µM): 0.673 | relative viability (NCI-H2170; first compound 0.01581 µM): 0.685 | relative viability (NCI-H2170; first compound 0.05 µM): 0.801 | relative viability (NCI-H2170; first compound 0.1581 µM): 0.671 | relative viability (NCI-H2170; first compound 0.5 µM): 0.784 | relative viability (EPLC-272H; first compound 0.005 µM): 0.195 | relative viability (EPLC-272H; first compound 0.01581 µM): 0.255 | relative viability (EPLC-272H; first compound 0.05 µM): 0.387 | relative viability (EPLC-272H; first compound 0.1581 µM): 0.224 | relative viability (EPLC-272H; first compound 0.5 µM): 0.275 | relative viability (NCI-H1437; first compound 0.005 µM): 0.405 | relative viability (NCI-H1437; first compound 0.01581 µM): 0.343 | relative viability (NCI-H1437; first compound 0.05 µM): 0.53 | relative viability (NCI-H1437; first compound 0.1581 µM): 0.44 | relative viability (NCI-H1437; first compound 0.5 µM): 0.436 | relative viability (NCI-H1975; first compound 0.005 µM): 0.676 | relative viability (NCI-H1975; first compound 0.01581 µM): 0.739 | relative viability (NCI-H1975; first compound 0.05 µM): 0.789 | relative viability (NCI-H1975; first compound 0.1581 µM): 0.691 | relative viability (NCI-H1975; first compound 0.5 µM): 0.567 | relative viability (NCI-H2085; first compound 0.005 µM): 0.806 | relative viability (NCI-H2085; first compound 0.01581 µM): 0.699 | relative viability (NCI-H2085; first compound 0.05 µM): 0.905 | relative viability (NCI-H2085; first compound 0.1581 µM): 0.985 | relative viability (NCI-H2085; first compound 0.5 µM): 0.812 | relative viability (SW 1573; first compound 0.005 µM): 0.165 | relative viability (SW 1573; first compound 0.01581 µM): 0.17 | relative viability (SW 1573; first compound 0.05 µM): 0.198 | relative viability (SW 1573; first compound 0.1581 µM): 0.205 | relative viability (SW 1573; first compound 0.5 µM): 0.38 | relative viability (COR-L 105; first compound 0.005 µM): 0.366 | relative viability (COR-L 105; first compound 0.01581 µM): 0.371 | relative viability (COR-L 105; first compound 0.05 µM): 0.406 | relative viability (COR-L 105; first compound 0.1581 µM): 0.374 | relative viability (COR-L 105; first compound 0.5 µM): 0.493 | relative viability (LCLC-97TM1; first compound 0.005 µM): 0.236 | relative viability (LCLC-97TM1; first compound 0.01581 µM): 0.168 | relative viability (LCLC-97TM1; first compound 0.05 µM): 0.274 | relative viability (LCLC-97TM1; first compound 0.1581 µM): 0.357 | relative viability (LCLC-97TM1; first compound 0.5 µM): 0.197 | relative viability (NCI-H1666; first compound 0.005 µM): 0.538 | relative viability (NCI-H1666; first compound 0.01581 µM): 0.605 | relative viability (NCI-H1666; first compound 0.05 µM): 0.668 | relative viability (NCI-H1666; first compound 0.1581 µM): 0.628 | relative viability (NCI-H1666; first compound 0.5 µM): 0.646 | relative viability (PC-3 [JPC-3]; first compound 0.005 µM): 0.802 | relative viability (PC-3 [JPC-3]; first compound 0.01581 µM): 0.869 | relative viability (PC-3 [JPC-3]; first compound 0.05 µM): 0.94 | relative viability (PC-3 [JPC-3]; first compound 0.1581 µM): 0.77 | relative viability (PC-3 [JPC-3]; first compound 0.5 µM): 0.837 | relative viability (LOU-NH91; first compound 0.005 µM): 0.644 | relative viability (LOU-NH91; first compound 0.01581 µM): 0.669 | relative viability (LOU-NH91; first compound 0.05 µM): 0.775 | relative viability (LOU-NH91; first compound 0.1581 µM): 0.759 | relative viability (LOU-NH91; first compound 0.5 µM): 0.659 | relative viability (EKVX; first compound 0.005 µM): 0.443 | relative viability (EKVX; first compound 0.01581 µM): 0.356 | relative viability (EKVX; first compound 0.05 µM): 0.35 | relative viability (EKVX; first compound 0.1581 µM): 0.47 | relative viability (EKVX; first compound 0.5 µM): 0.474 | relative viability (NCI-H650; first compound 0.005 µM): 0.763 | relative viability (NCI-H650; first compound 0.01581 µM): 0.743 | relative viability (NCI-H650; first compound 0.05 µM): 0.743 | relative viability (NCI-H650; first compound 0.1581 µM): 0.732 | relative viability (NCI-H650; first compound 0.5 µM): 0.594 | relative viability (NCI-H647; first compound 0.005 µM): 0.269 | relative viability (NCI-H647; first compound 0.01581 µM): 0.203 | relative viability (NCI-H647; first compound 0.05 µM): 0.263 | relative viability (NCI-H647; first compound 0.1581 µM): 0.332 | relative viability (NCI-H647; first compound 0.5 µM): 0.302 | relative viability (HCC-827; first compound 0.005 µM): 0.429 | relative viability (HCC-827; first compound 0.01581 µM): 0.421 | relative viability (HCC-827; first compound 0.05 µM): 0.417 | relative viability (HCC-827; first compound 0.1581 µM): 0.408 | relative viability (HCC-827; first compound 0.5 µM): 0.455 | relative viability (NCI-H2342; first compound 0.005 µM): 0.469 | relative viability (NCI-H2342; first compound 0.01581 µM): 0.543 | relative viability (NCI-H2342; first compound 0.05 µM): 0.603 | relative viability (NCI-H2342; first compound 0.5 µM): 0.43 | relative viability (LU99A; first compound 0.005 µM): 0.299 | relative viability (LU99A; first compound 0.01581 µM): 0.279 | relative viability (LU99A; first compound 0.05 µM): 0.307 | relative viability (LU99A; first compound 0.1581 µM): 0.275 | relative viability (LU99A; first compound 0.5 µM): 0.256 | relative viability (BEN; first compound 0.005 µM): 0.515 | relative viability (BEN; first compound 0.01581 µM): 0.425 | relative viability (BEN; first compound 0.05 µM): 0.572 | relative viability (BEN; first compound 0.5 µM): 0.542 | relative viability (NCI-H2087; first compound 0.005 µM): 0.22 | relative viability (NCI-H2087; first compound 0.01581 µM): 0.316 | relative viability (NCI-H2087; first compound 0.05 µM): 0.261 | relative viability (NCI-H2087; first compound 0.1581 µM): 0.338 | relative viability (NCI-H2087; first compound 0.5 µM): 0.303 | relative viability (HCC-44; first compound 0.005 µM): 0.889 | relative viability (HCC-44; first compound 0.01581 µM): 0.9 | relative viability (HCC-44; first compound 0.05 µM): 0.839 | relative viability (HCC-44; first compound 0.1581 µM): 1.04 | relative viability (HCC-44; first compound 0.5 µM): 0.773
